Measurements as given in patent publication US7399638B2, “Prediction method for lipidosis” (Takeda Pharmaceutical Company Limited, priority 2003, dated 2008).
Read-outs that look alike come from different tables or passages of the source. Marks after values point to notes of the source that are not given here. Values belong to the compound of their own block, whether it stands above or below them.

Legend:
[1] = from Summary Basis of Approval (FDA); species and route not given; cited from earlier work
Crj: CD(SD)IGS rats [2] = test: Urinary PAG/hippuric acid ratio by 1H NMR in rats; settings: rat urine; for PAG + hippuric acid/creatinine / PAG/PAG + hippuric acid / PAG/creatinine (first term of PAG + hippuric acid) / PAG/hippuric acid / hippuric acid/creatinine (second term of PAG + hippuric acid): 3 days, mean n = 3-4
Protocol: During the urine pooling, the collecting vessels were kept in an ice-cooled condition. After the urine collection, the urine was centrifuged at 1500×g for 10 minutes, and not less than 1 mL of the supernatant was collected and stored under freezing (below −70° C.) in a microtube in an ultralow-temperature freezer until the measurement. For the negative control group, 24-hour pooled urine was collected under ice cooling; after the urine collection, the urine was stored at −30° C. until the measurement.
Crj: CD(SD)IGS rats [3] = settings: rat, in vivo
Protocol: (§1) The following 10 kinds of commercially available drugs were examined as the test compounds for a potential of inducing PLsis by histopathological examination and peripheral blood lymphocyte testing.
(§2) The following experiments were performed using the prematurely autopsied animals.
(§3) The high-dose dosing suspension was diluted about 3 fold and 10 fold with dispersant/solvent to prepare intermediate- and low-dose dosing suspensions. […] [For LD50, the Summary Basis of Approval (FDA) for each drug was referenced to.]
(§4) The animals were examined for mortality, general conditions, body weight, food consumption and the like using PM4800 (Mettler) and EB3200D (Shimadzu Corporation).

Crj: CD(SD)IGS rats [4] = settings: male, rat, in vivo, 3 days
Protocol: as §1, §2, §3, §4
Hematological examination was performed for parameters such as RBC count, hematocrit, hemoglobin concentration, mean corpuscular hemoglobin (MCH), mean corpuscular hemoglobin concentration (MCHC), mean corpuscular volume (MCV), platelet count, WBC count, reticulocyte count, differential WBC, and vacuolated lymphocyte ratio (for PLsis-inducing compounds only) using ADVIA120 (Bayer Medical Ltd.) and E-4000 (Sysmex Corporation).

male cynomolgus monkeys [5] = settings: cynomolgus monkey, in vivo, 60 mg/kg
Protocol: Amiodarone and perhexiline were purchased from SIGMA Company.
(§5) Subsequently, the animals were allocated to four groups (5 animals in total) comprising 2 animals in the control group and 1 male in each treatment group, respectively.
(§6) The high-dose dosing suspension was diluted with the dispersant/solvent to prepare a low-dose dosing suspension.
After completion of the administration, livers, kidneys, hearts, spleens, lungs, mesenteric lymph nodes, eyeballs, testes and brains were collected from all animals, and examined for histopathological changes by conventional method of optical microscopy. Additionally, blood samples were collected in the pre-dosing period, on the first day of administration, and on days 2 and 6 of treatment period, blood smear specimens were prepared, and vacuolated lymphocyte ratios were determined.

male cynomolgus monkeys [6] = test: Urinary PAGN/hippuric acid ratio by 1H NMR in monkeys; assay type: in vivo, cynomolgus monkey; settings: for Urinary PAGN/hippuric acid ratio: male cynomolgus monkey, 60 mg/kg/day by gavage for 7 days
Protocol: as §5, §6
Pooled urine was collected from the monkeys in the Example above under fasting for about 6 hours in the pre-dosing period (Pre), on the first day of administration (Day 0), and on days 2 and 6 of treatment period (Days 2 and 6).
^1H NMR was performed as described below. Reagents were used without purification. Heavy water (D2O) was purchased from ISOTEC. […] INC (USA).
A phosphate buffer solution was prepared as described below.
Operating conditions were set as shown below.

SMILES: CN(C)CCCN1c2ccccc2Sc2ccc(Cl)cc21 [Chlorpromazine, chlorpromazine]
LD50 [1]: 145 mg/kg
PAG + hippuric acid/creatinine (Crj: CD(SD)IGS rats [2]; 100 mg/kg/day by gavage): 1.45
PAG/PAG + hippuric acid (Crj: CD(SD)IGS rats [2]; 100 mg/kg/day by gavage): 12.80%
PAG/creatinine (first term of PAG + hippuric acid) (Crj: CD(SD)IGS rats [2]; 100 mg/kg/day by gavage): 0.18
PAG/hippuric acid (Crj: CD(SD)IGS rats [2]; 100 mg/kg/day by gavage): 14.93%
hippuric acid/creatinine (second term of PAG + hippuric acid) (Crj: CD(SD)IGS rats [2]; 100 mg/kg/day by gavage): 1.27
PAG + hippuric acid/creatinine (Crj: CD(SD)IGS rats [2]; 300 mg/kg/day by gavage): 1.63
PAG/PAG + hippuric acid (Crj: CD(SD)IGS rats [2]; 300 mg/kg/day by gavage): 12.57%
PAG/creatinine (first term of PAG + hippuric acid) (Crj: CD(SD)IGS rats [2]; 300 mg/kg/day by gavage): 0.21
PAG/hippuric acid (Crj: CD(SD)IGS rats [2]; 300 mg/kg/day by gavage): 14.51%
PAG + hippuric acid/creatinine (Crj: CD(SD)IGS rats [2]; 1000 mg/kg/day by gavage): 0.86*
PAG/PAG + hippuric acid (Crj: CD(SD)IGS rats [2]; 1000 mg/kg/day by gavage): 42.20* %
PAG/creatinine (first term of PAG + hippuric acid) (Crj: CD(SD)IGS rats [2]; 1000 mg/kg/day by gavage): 0.30
PAG/hippuric acid (Crj: CD(SD)IGS rats [2]; 1000 mg/kg/day by gavage): 104.13* %
hippuric acid/creatinine (second term of PAG + hippuric acid) (Crj: CD(SD)IGS rats [2]; 1000 mg/kg/day by gavage): 0.56
PAG/hippuric acid ratio or PAG/(PAG+hippuric acid) ratio (Crj: CD(SD)IGS rats [2]; high-dose administration group, 3-day administration): remarkable increase
PLsis positivity by histopathological examination or vacuolated lymphocyte testing (Crj: CD(SD)IGS rats [3]): could not be determined
Histopathological changes (PLsis): Liver (Crj: CD(SD)IGS rats [3]; 100 mg/kg/day): −
Histopathological changes (PLsis): Lung (Crj: CD(SD)IGS rats [3]; 100 mg/kg/day): −
Histopathological changes (PLsis): Lymph node (Crj: CD(SD)IGS rats [3]; 100 mg/kg/day): −
Histopathological changes (PLsis): Others (Crj: CD(SD)IGS rats [3]; 100 mg/kg/day): −
Histopathological changes (PLsis): Spleen (Crj: CD(SD)IGS rats [3]; 100 mg/kg/day): −
Histopathological changes (PLsis): Liver (Crj: CD(SD)IGS rats [3]; 300 mg/kg/day): −
Histopathological changes (PLsis): Lung (Crj: CD(SD)IGS rats [3]; 300 mg/kg/day): −
Histopathological changes (PLsis): Lymph node (Crj: CD(SD)IGS rats [3]; 300 mg/kg/day): −
Histopathological changes (PLsis): Others (Crj: CD(SD)IGS rats [3]; 300 mg/kg/day): −
Histopathological changes (PLsis): Spleen (Crj: CD(SD)IGS rats [3]; 300 mg/kg/day): −
Histopathological changes (PLsis): Liver (Crj: CD(SD)IGS rats [3]; 1000 mg/kg/day): −
Histopathological changes (PLsis): Lung (Crj: CD(SD)IGS rats [3]; 1000 mg/kg/day): −
Histopathological changes (PLsis): Lymph node (Crj: CD(SD)IGS rats [3]; 1000 mg/kg/day): −
Histopathological changes (PLsis): Others (Crj: CD(SD)IGS rats [3]; 1000 mg/kg/day): −
Histopathological changes (PLsis): Spleen (Crj: CD(SD)IGS rats [3]; 1000 mg/kg/day): −
Mean vacuolated lymphocyte ratio (Crj: CD(SD)IGS rats [4]; 100 mg/kg/day): 2%
Mean vacuolated lymphocyte ratio (Crj: CD(SD)IGS rats [4]; 300 mg/kg/day): 2%
Mean vacuolated lymphocyte ratio (Crj: CD(SD)IGS rats [4]; 1000 mg/kg/day): 1%

histopathological changes in any target organ (male cynomolgus monkeys [5]): observed
vacuolated lymphocyte ratio (male cynomolgus monkeys [5]): increase
PAGN/hippuric acid ratio compared to the control group (male cynomolgus monkeys [6]; cynomolgus monkey urine, 60 mg/kg, gavage 7 days): increased
Urinary PAGN/hippuric acid ratio (male cynomolgus monkeys [6]; Day 0, 1 animal): 2.17
Urinary PAGN/hippuric acid ratio (male cynomolgus monkeys [6]; Day 2, 1 animal): 1.43
Urinary PAGN/hippuric acid ratio (male cynomolgus monkeys [6]; Day 6, 1 animal): ↑12.89
Urinary PAGN/hippuric acid ratio (male cynomolgus monkeys [6]; Pre (pre-dosing period), 1 animal): 1.10
PAG + hippuric acid/creatinine (Crj: CD(SD)IGS rats [2]; 60 mg/kg/day by gavage): 1.47
PAG/PAG + hippuric acid (Crj: CD(SD)IGS rats [2]; 60 mg/kg/day by gavage): 10.16%
PAG/creatinine (first term of PAG + hippuric acid) (Crj: CD(SD)IGS rats [2]; 60 mg/kg/day by gavage): 0.15
PAG/hippuric acid (Crj: CD(SD)IGS rats [2]; 60 mg/kg/day by gavage): 11.39%
hippuric acid/creatinine (second term of PAG + hippuric acid) (Crj: CD(SD)IGS rats [2]; 60 mg/kg/day by gavage): 1.31
PAG + hippuric acid/creatinine (Crj: CD(SD)IGS rats [2]; 200 mg/kg/day by gavage): 1.52
PAG/PAG + hippuric acid (Crj: CD(SD)IGS rats [2]; 200 mg/kg/day by gavage): 15.59* %
PAG/creatinine (first term of PAG + hippuric acid) (Crj: CD(SD)IGS rats [2]; 200 mg/kg/day by gavage): 0.24
PAG/hippuric acid (Crj: CD(SD)IGS rats [2]; 200 mg/kg/day by gavage): 18.49%
hippuric acid/creatinine (second term of PAG + hippuric acid) (Crj: CD(SD)IGS rats [2]; 200 mg/kg/day by gavage): 1.28
PAG + hippuric acid/creatinine (Crj: CD(SD)IGS rats [2]; 600 mg/kg/day by gavage): 0.75*
PAG/PAG + hippuric acid (Crj: CD(SD)IGS rats [2]; 600 mg/kg/day by gavage): 45.67* %
PAG/creatinine (first term of PAG + hippuric acid) (Crj: CD(SD)IGS rats [2]; 600 mg/kg/day by gavage): 0.31
PAG/hippuric acid (Crj: CD(SD)IGS rats [2]; 600 mg/kg/day by gavage): 146.97* %
hippuric acid/creatinine (second term of PAG + hippuric acid) (Crj: CD(SD)IGS rats [2]; 600 mg/kg/day by gavage): 0.44
Histopathological changes (PLsis): Liver (Crj: CD(SD)IGS rats [3]; 60 mg/kg/day): −
Histopathological changes (PLsis): Lung (Crj: CD(SD)IGS rats [3]; 60 mg/kg/day): −
Histopathological changes (PLsis): Lymph node (Crj: CD(SD)IGS rats [3]; 60 mg/kg/day): −
Histopathological changes (PLsis): Others (Crj: CD(SD)IGS rats [3]; 60 mg/kg/day): −
Histopathological changes (PLsis): Spleen (Crj: CD(SD)IGS rats [3]; 60 mg/kg/day): −
Histopathological changes (PLsis): Liver (Crj: CD(SD)IGS rats [3]; 200 mg/kg/day): −
Histopathological changes (PLsis): Lung (Crj: CD(SD)IGS rats [3]; 200 mg/kg/day): +
Histopathological changes (PLsis): Lymph node (Crj: CD(SD)IGS rats [3]; 200 mg/kg/day): +
Histopathological changes (PLsis): Others (Crj: CD(SD)IGS rats [3]; 200 mg/kg/day): −
Histopathological changes (PLsis): Spleen (Crj: CD(SD)IGS rats [3]; 200 mg/kg/day): −
Histopathological changes (PLsis): Liver (Crj: CD(SD)IGS rats [3]; 600 mg/kg/day): −
Histopathological changes (PLsis): Lung (Crj: CD(SD)IGS rats [3]; 600 mg/kg/day): +
Histopathological changes (PLsis): Lymph node (Crj: CD(SD)IGS rats [3]; 600 mg/kg/day): +
Histopathological changes (PLsis): Others (Crj: CD(SD)IGS rats [3]; 600 mg/kg/day): −
Histopathological changes (PLsis): Spleen (Crj: CD(SD)IGS rats [3]; 600 mg/kg/day): +
Mean vacuolated lymphocyte ratio (Crj: CD(SD)IGS rats [4]; 60 mg/kg/day): 2%
Mean vacuolated lymphocyte ratio (Crj: CD(SD)IGS rats [4]; 200 mg/kg/day): 4%
Mean vacuolated lymphocyte ratio (Crj: CD(SD)IGS rats [4]; 600 mg/kg/day): 52%
SMILES: C1CCC(C(CC2CCCCN2)C2CCCCC2)CC1 (stereo not drawn) [Perhexiline, perhexiline]
